Read-outs that look alike come from different tables or passages of the source.
Legend:
[1] = Blood/plasma partitional ratio, rat blood; assay type: in vitro ADME; settings: fresh pooled whole blood with heparin, rat whole blood, 37°C, read-out: blood/plasma partitioning (R b/P)
Experimental: (§1) The blood/plasma partitional ratio (R b/p) in rat and human blood was measured in vitro using fresh pooled blood including heparin. Whole blood was preincubated at 37°C in a water bath, and spiked with YL-IPA08 at 1 µM. The blood samples were incubated at 37°C for 1 h. After incubation, aliquots of 25 µl spiked whole blood were removed, and the remaining blood was centrifuged at 2,000 × g for 10 min, after which 25 µl aliquots of plasma were removed. Obtained blood and plasma samples were spiked with same volume of blank plasma or blood, respectively, and then immediately precipitated by adding 4× volumes of acetonitrile containing IS to get the same matrix. The concentrations of YL-IPA08 in blood and plasma were determined by LC-MS/MS.

TSPO [2] = test: In vitro TSPO binding, crude mitochondrial fraction from rat cerebellum; settings: corrected by binding fraction of 10-volume brain homogenate
Description: Unbound fractions of YL-IPA08 in rat plasma and brain homogenate were 0.6 and 0.49%, respectively. K p value of brain to plasma in rats was obtained under steady state to reach brain equilibrium in a transient dosing regimen. Then, K p,uu achieved 0.18. The unbound concentration of YL-IPA08 in brain can be estimated based on the plasma concentrations after rats receiving different dosages of YL-IPA08 via oral dosing (Table 4). For example, the unbound concentration of 6.5 pg/g in brain can be achieved after 1 mg/kg oral dosing. […] The unbound concentration in the incubates was obtained with 0.0108 nM (e.g., 4.9 pg/ml) by correcting the binding fraction of 10-volume brain homogenate (0.047).

in vitro [3] = settings: rat, microsomes, pH 7.4
[4] = rat, microsomes, 0 h, 1 μM, pH 7.4
in vitro [5] = assay type: in vitro ADME; settings: human, microsomes
Experimental: (§2) The fraction of unbound YL-IPA08 in plasma and liver microsomes of rat and human, and brain homogenates of rat were determined utilizing Rapid Equilibrium Dialysis method ([Waters et al., 2008]). Rat brain homogenate was harvested in 4-fold volume (w/v) of PBS (pH 7.4). YL-IPA08 were spiked into fresh plasma, rat brain homogenate, liver microsomes (0.2 mg/ml protein) at concentration of 1 µM, and then dialyzed against biomatrices on a shaker at 37°C for 4 h. To avoid the high non-specific binding of YL-IPA08, 0.01% Tween 80 was added in the incubation mixture. At the end of the incubation, protein was precipitated with acetonitrile (containing IS) and analyzed by LC-MS/MS. Phenacetin, quinidine, and warfarin were selected as positive control for the protein binding test.
(§3) The unbound fraction of YL-IPA08 in plasma or liver microsomes (ƒu,x) was calculated as shown in Eq. 2, and unbound fraction in the tissue homogenate (ƒu,b) was calculated according to Eq. 3. fu,x = Concbuffer chamber/Concplasma/liver microsomes chamber (2) fu,b = Concbuffer chamber/Concbrain homogenate chamber (3) The measured unbound fractions would be higher when a tissue is homogenized and diluted in buffer, the unbound fractions in an undiluted tissues (ƒu,brain) were calculated using Eq. 4 ([Kalvass and Maurer, 2002]). […]

in vitro [6] = assay type: in vitro ADME; settings: human, plasma
Experimental: as §2, §3

[7] = Blood/plasma partitional ratio, human blood; assay type: in vitro ADME; settings: fresh pooled whole blood with heparin, human whole blood, 37°C, read-out: blood/plasma partitioning (R b/P)
Experimental: as §1

TSPO [8] = test system: TSPO; set-up: method as in Zhang et al. (2017); settings: crude mitochondrial fraction from rat cerebellum, 10 volumes HS buffer; ref Zhang et al. (2017); cited from earlier work
[9] = human, microsomes, 0 h, 1 μM, pH 7.4
[10] = Pharmacokinetics in rats with ABT pretreatment (intestinal and hepatic availability); settings: rat, plasma; for concentration at 0.033 h / concentration at 0.083 h / concentration at 8 h / concentration at 12 h / concentration at 24 h / concentration at 0.25 h / concentration at 0.5 h / concentration at 1 h / concentration at 2 h / concentration at 4 h / concentration at 6 h: Plasma concentration; for concentration at 0.033 h / concentration at 0.083 h / concentration at 8 h / concentration at 12 h / concentration at 24 h / concentration at 0.25 h / concentration at 0.5 h / concentration at 1 h / concentration at 2 h / concentration at 4 h / concentration at 6 h / AUC(0-inf) / MRT last: rats; for AUC(0-t) / AUC(0-inf) / MRT last / Vd / clearance / half-life: iv; for MRT last: MRT(0–t)
[11] = 0.1 mg/kg, p.o. ABT, i.v. YL-IPA08 (0.1 mg/kg)
[12] = 0.1 mg/kg, with ABT 100 mg/kg p.o., 15 h before dosing
[13] = 0.5 mg/kg, i.v. ABT, i.v. YL-IPA08 (0.5 mg/kg)
[14] = 0.5 mg/kg, with ABT 50 mg/kg i.v., 1 h before dosing

Compound: CCN(Cc1ccccn1)C(=O)Cc1c(-c2ccc(Cl)c(Cl)c2)nc2cc(C)ccn12 [YL-IPA08]
- blood plasma ratio at 1 h, 1 µM [1]: 1.12 ± 0.08
- unbound concentration in the incubates / in vitro TSPO-binding activity (TSPO [2]): 4.9 pg/mL
- microsomal CLint at 1 μM (in vitro [3]): 53 ± 20 µL/min/mg
- percent of remaining [4]: 100.00%
- fraction unbound at 4 h, 1 µM (in vitro [5]): 0.447
- fraction unbound at 4 h, 1 µM (in vitro [6]): 0.001
- blood plasma ratio at 1 h, 1 µM [7]: 1.58 ± 0.06
- IC50 (TSPO [8]): 0.23 nM
- percent of remaining [9]: 100.00%
- concentration at 0.033 h ([10]; intravenous, 0.1 mg/kg, p.o. 100 mg/kg ABT, i.v. 0.1 mg/kg YL-IPA08, 0.033 h): 465 ± 68.7 ng/mL
- concentration at 0.083 h ([10]; intravenous, 0.1 mg/kg, p.o. 100 mg/kg ABT, i.v. 0.1 mg/kg YL-IPA08, 0.083 h): 398 ± 51.3 ng/mL
- concentration at 8 h ([10]; intravenous, 0.1 mg/kg, p.o. 100 mg/kg ABT, i.v. 0.1 mg/kg YL-IPA08, 8 h): 8.97 ± 2.63 ng/mL
- concentration at 12 h ([10]; intravenous, 0.1 mg/kg, p.o. 100 mg/kg ABT, i.v. 0.1 mg/kg YL-IPA08, 12 h): 4.58 ± 1.17 ng/mL
- concentration at 24 h ([10]; intravenous, 0.1 mg/kg, p.o. 100 mg/kg ABT, i.v. 0.1 mg/kg YL-IPA08, 24 h): 0.65 ± 0.29 ng/mL
- concentration at 0.033 h ([10]; intravenous, 0.5 mg/kg, i.v. 50 mg/kg ABT, i.v. 0.5 mg/kg YL-IPA08, 0.033 h): 398 ± 77.8 ng/mL
- concentration at 0.083 h ([10]; intravenous, 0.5 mg/kg, i.v. 50 mg/kg ABT, i.v. 0.5 mg/kg YL-IPA08, 0.083 h): 285 ± 28.2 ng/mL
- concentration at 12 h ([10]; intravenous, 0.5 mg/kg, i.v. 50 mg/kg ABT, i.v. 0.5 mg/kg YL-IPA08, 12 h): 6.73 ± 2.47 ng/mL
- concentration at 24 h ([10]; intravenous, 0.5 mg/kg, i.v. 50 mg/kg ABT, i.v. 0.5 mg/kg YL-IPA08, 24 h): 2.01 ± 0.93 ng/mL
- concentration at 0.25 h ([10]; intravenous, i.v. 50 mg/kg ABT, i.v. 0.5 mg/kg YL-IPA08, 0.25 h): 208 ± 29.4 ng/mL
- concentration at 0.5 h ([10]; intravenous, i.v. 50 mg/kg ABT, i.v. 0.5 mg/kg YL-IPA08, 0.5 h): 156 ± 21.5 ng/mL
- concentration at 1 h ([10]; intravenous, i.v. 50 mg/kg ABT, i.v. 0.5 mg/kg YL-IPA08, 1 h): 113 ± 14.7 ng/mL
- concentration at 2 h ([10]; intravenous, i.v. 50 mg/kg ABT, i.v. 0.5 mg/kg YL-IPA08, 2 h): 54.8 ± 11.8 ng/mL
- concentration at 4 h ([10]; intravenous, i.v. 50 mg/kg ABT, i.v. 0.5 mg/kg YL-IPA08, 4 h): 17.6 ± 5.36 ng/mL
- concentration at 6 h ([10]; intravenous, i.v. 50 mg/kg ABT, i.v. 0.5 mg/kg YL-IPA08, 6 h): 10.8 ± 3.07 ng/mL
- concentration at 8 h ([10]; intravenous, i.v. 50 mg/kg ABT, i.v. 0.5 mg/kg YL-IPA08, 8 h): 8.91 ± 3.06 ng/mL
- concentration at 0.25 h ([10]; intravenous, p.o. 100 mg/kg ABT, i.v. 0.1 mg/kg YL-IPA08, 0.25 h): 266 ± 55.2 ng/mL
- concentration at 0.5 h ([10]; intravenous, p.o. 100 mg/kg ABT, i.v. 0.1 mg/kg YL-IPA08, 0.5 h): 245 ± 30.4 ng/mL
- concentration at 1 h ([10]; intravenous, p.o. 100 mg/kg ABT, i.v. 0.1 mg/kg YL-IPA08, 1 h): 192 ± 16.5 ng/mL
- concentration at 2 h ([10]; intravenous, p.o. 100 mg/kg ABT, i.v. 0.1 mg/kg YL-IPA08, 2 h): 114 ± 13.7 ng/mL
- concentration at 4 h ([10]; intravenous, p.o. 100 mg/kg ABT, i.v. 0.1 mg/kg YL-IPA08, 4 h): 38.7 ± 13.7 ng/mL
- concentration at 6 h ([10]; intravenous, p.o. 100 mg/kg ABT, i.v. 0.1 mg/kg YL-IPA08, 6 h): 14.5 ± 3.66 ng/mL
- AUC(0-t) ([10]; 0.1 mg/kg): 125 ± 46.9 ng·h/mL
- AUC(0-inf) [10, 11]: 126 ± 46.6 ng·h/mL
- MRT last [10, 11]: 5.45 ± 0.66 h
- Vd [10, 12]: 1.54 ± 0.49 L/kg
- clearance [10, 12]: 15 ± 4.78 mL/min/kg
- half-life [10, 12]: 1.19 ± 0.12 h
- AUC(0-t) ([10]; 0.5 mg/kg): 472 ± 64.3 ng·h/mL
- AUC(0-inf) [10, 13]: 476 ± 65.8 ng·h/mL
- MRT last [10, 13]: 3.82 ± 0.32 h
- Vd [10, 14]: 2.24 ± 0.28 L/kg
- clearance [10, 14]: 17.8 ± 2.74 mL/min/kg
- half-life [10, 14]: 1.46 ± 0.14 h
- concentration at 0.083 h ([10]; oral, 1 mg/kg, i.v. 50 mg/kg ABT, p.o. 1mg/kg YL-IPA08, 0.083 h): 9.32 ± 7.18 ng/mL
- concentration at 8 h ([10]; oral, 1 mg/kg, i.v. 50 mg/kg ABT, p.o. 1mg/kg YL-IPA08, 8 h): 4.51 ± 2.58 ng/mL
- concentration at 12 h ([10]; oral, 1 mg/kg, i.v. 50 mg/kg ABT, p.o. 1mg/kg YL-IPA08, 12 h): 3.98 ± 4.24 ng/mL
- concentration at 24 h ([10]; oral, 1 mg/kg, i.v. 50 mg/kg ABT, p.o. 1mg/kg YL-IPA08, 24 h): 1.28 ± 0.53 ng/mL
- concentration at 0.083 h ([10]; oral, 1 mg/kg, p.o. 100 mg/kg ABT, p.o. 1 mg/kg YL-IPA08, 0.083 h): 546 ± 637 ng/mL

— publication PMC7732531 (Frontiers in Pharmacology, 2020)
